Test system: epidermal gene expression (GeneTitan U219 probes)
Test: Genomic evaluation of LCM-derived epidermal samples before vs. after surfactant (SLS) challenge, leg controlled application test
Assay type: in vivo, human
Conditions: for Significant Beyond Chance / Number of Probes (significantly different): summer, after 5 day 1% SLS treatment vs. baseline; for Number of Probes (significantly different): p<0.05, approximately 2465 probes expected by chance
Protocol: 25 ng of purified RNA is converted to biotin-labeled cRNA copies using the Affymetrix HT 3′ IVT Express kit (Cat. #901253) and protocol provided as executed on a Beckman Biomek® FX^p Laboratory Automation Workstation (Beckman Cat. #A31842), or equivalent. In brief, 500 ng of total RNA is reverse-transcribed into cDNA copies using oligo-dT primers and reverse transcriptase followed by second strand synthesis using DNA polymerase I. Following purification, the cDNA library is used as a template for generating biotin-labeled cRNA copies using T7 RNA polymerase and biotinylated dUTP. Biotinylated cRNA is fragmented by limited alkaline hydrolysis and then hybridized overnight to Affymetrix GeneTitan® U219 array plates using the Affymetrix GeneTitan® instrument and protocol provided. Following processing, chip images are converted to numeric data using the PLIER algorithm as executed in the Affymetrix GeneChip Expression Console.
A clinical study was conducted to conduct a genomic evaluation of subjects with inherently dry skin versus subjects with inherently normal moisturized skin in the winter season (phase 1) and summer season (phase 2. The clinical study design for each phase was a leg controlled application test (LCAT) protocol. The phase 2 portion of the test also included a determination of genomic differences between subjects that are treated with a drying agent (“surfactant challenged”).
Phase 2 clinical design: human subjects from phase 1 were recalled during the summer season (i.e., June-August) and maintained in their respective cohort groups. A cohort of 29 subjects was recalled for the inherently dry skin group, while a cohort of 12 subjects was recalled for the inherently normal moisturized skin group. All subjects were pre-conditioned with Olay® soap bar for 7 days (days −7 to −1) followed by a 2 day regression. Subjects were instructed to abstain from washing their legs with any products and from using any leave-on products on their legs during the pretreatment period. Dry Skin Grade measurements, full thickness biopsies, and other skin health measurements (e.g., TEWL) were taken on day 1. Subjects with a dry skin score of greater than 4.0 were excluded from biopsies. The full thickness biopsies were later separated into epidermal and dermal sections via LCM, and the epidermal section was used for genomic analysis.
On days 3-7 (5 consecutive days) subjects who have a Dryness Grade less than 3.0 on one or both legs continue on the study, all other subjects were excused from the study. The clinical staff conducted visual grading at a site adjacent to the biopsy site, followed by a surfactant challenge (i.e., treating the site with 1% sodium lauryl sulfate (“SLS”) solution and occluding the site with a Hill Top Chamber® brand occlusive patch test system for 30 minutes). Each day the dryness was visually graded prior to the SLS treatment. On day 8 (24 hrs. following Day 7), bio-instruments measures were taken, but biomarkers and biopsies were only taken if the surfactant challenged site has a Dryness Grade below 4.0.
Results: 237 LCM-derived epidermal samples were processed on GeneTitan® U219 chips as described above. Of these, 11 were statistical outliers that were eliminated from the data set. For purposes of statistical treatment, the left and right leg samples from each subject, at each phase of the study, were considered replicates. An ANOVA model was used to determine group differences.

[1] = P2 D5 Dry vs. P2 BL Dry: inherently dry skin
[2] = P2 D5 Healthy vs. P2 BL Healthy: inherently normal moisturized skin

Question: `CCCCCCCCCCCCOS(=O)(=O)[O-].[Na+]` [SLS, sodium lauryl sulfate] was tested. Which “Significant Beyond Chance” value [1] did it give?
Answer: Yes

Question: What about the “Number of Probes (significantly different)” value [1] of the same compound?
Answer: 10696

Question: What about the “Significant Beyond Chance” value [2] of the same compound?
Answer: Yes

Question: What about the “Number of Probes (significantly different)” value [2] of the same compound?
Answer: 6110

Question: And the “Difference in probe expression, paired (within-group) comparison before vs. after SLS treatment” value (within dry skin or normal/healthy skin groups, summer phase)?
Answer: significant differences
